# Reference: patent publication US20060172993A1 (priority 2002, published 2006)
# System: Patients diagnosed with Alzheimer's Disease
# Assay: Adverse events / safety monitoring in the trial
# Assay type: in vivo, human
# Method: Subjects in the Placebo group received 21 weeks (5 months) of placebo medication.
# The safety of the drug was also monitored throughout the study. Blood samples for biochemistry and haematology and random urine sample for urinalysis were taken at each visit and at completion for all efficacy testing. Systolic and diastolic blood pressure were measured in the sitting position, pulse and vital signs were recorded at each visit.
smiles,measurement,setting,value
"COc1ccc2c3c1O[C@H]1C[C@@H](O)C=C[C@@]31CCN(C)C2 [GAL, galantamine]","Serious adverse event Basal cell carcinoma, % of patients",16 mg/day,(0.0%)
same,"Serious adverse event Basal cell carcinoma, number of patients",16 mg/day,0
same,"Serious adverse event Breast neoplasm female, % of patients",16 mg/day,(0.0%)
same,"Serious adverse event Breast neoplasm female, number of patients",16 mg/day,0
same,"Serious adverse event Cardiac failure, % of patients",16 mg/day,(1.1%)
same,"Serious adverse event Cardiac failure, number of patients",16 mg/day,3
same,"Serious adverse event Dehydration, % of patients",16 mg/day,(1.1%)
same,"Serious adverse event Dehydration, number of patients",16 mg/day,3
same,"Serious adverse event Diarrhea, % of patients",16 mg/day,(1.1%)
same,"Serious adverse event Diarrhea, number of patients",16 mg/day,3
same,"Serious adverse event Dyspnea, % of patients",16 mg/day,(0.7%)
same,"Serious adverse event Dyspnea, number of patients",16 mg/day,2
same,"Serious adverse event Fall, % of patients",16 mg/day,(0.4%)
same,"Serious adverse event Fall, number of patients",16 mg/day,1
same,"Serious adverse event Gi haemorrhage, % of patients",16 mg/day,(0.0%)
same,"Serious adverse event Gi haemorrhage, number of patients",16 mg/day,0
same,"Serious adverse event Injury, % of patients",16 mg/day,(0.4%)
same,"Serious adverse event Injury, number of patients",16 mg/day,1
same,"Serious adverse event Myocardial infarction, % of patients",16 mg/day,(0.4%)
same,"Serious adverse event Myocardial infarction, number of patients",16 mg/day,1
same,"Serious adverse event Nausea, % of patients",16 mg/day,(0.7%)
same,"Serious adverse event Nausea, number of patients",16 mg/day,2
same,"Serious adverse event Pneumonia, % of patients",16 mg/day,(0.7%)
same,"Serious adverse event Pneumonia, number of patients",16 mg/day,2
same,"Serious adverse event Sepsis, % of patients",16 mg/day,(0.0%)
same,"Serious adverse event Sepsis, number of patients",16 mg/day,0
same,"Serious adverse event Surgical intervention, % of patients",16 mg/day,(1.1%)
same,"Serious adverse event Surgical intervention, number of patients",16 mg/day,3
same,"Serious adverse event Syncope, % of patients",16 mg/day,(1.4%)
same,"Serious adverse event Syncope, number of patients",16 mg/day,4
same,"Serious adverse event Thrombophlebitis deep, % of patients",16 mg/day,(0.0%)
same,"Serious adverse event Thrombophlebitis deep, number of patients",16 mg/day,0
same,"Serious adverse event Transient ischemic attack, % of patients",16 mg/day,(0.7%)
same,"Serious adverse event Transient ischemic attack, number of patients",16 mg/day,2
same,"Serious adverse event Urinary tract infection, % of patients",16 mg/day,(0.7%)
same,"Serious adverse event Urinary tract infection, number of patients",16 mg/day,2
same,"Serious adverse event Vomiting, % of patients",16 mg/day,(0.7%)
same,"Serious adverse event Vomiting, number of patients",16 mg/day,2
same,"Total patients with any SAE, %",16 mg/day,(10.0%)
same,"Total patients with any SAE, number",16 mg/day,28
same,"Adverse event Agitation, % of patients",24 mg/day,(8.1%)
same,"Adverse event Agitation, number of patients",24 mg/day,22
same,"Adverse event Anorexia, % of patients",24 mg/day,(8.8%)
same,"Adverse event Anorexia, number of patients",24 mg/day,24
same,"Adverse event Depression, % of patients",24 mg/day,(8.%)
same,"Adverse event Depression, number of patients",24 mg/day,22
same,"Adverse event Diarrhea, % of patients",24 mg/day,(5.5%)
same,"Adverse event Diarrhea, number of patients",24 mg/day,15
same,"Adverse event Dizziness, % of patients",24 mg/day,(7.0%)
same,"Adverse event Dizziness, number of patients",24 mg/day,19
same,"Adverse event Dyspepsia, % of patients",24 mg/day,(5.5%)
same,"Adverse event Dyspepsia, number of patients",24 mg/day,15
same,"Adverse event Edema peripheral, % of patients",24 mg/day,(2.6%)
same,"Adverse event Edema peripheral, number of patients",24 mg/day,7
same,"Adverse event Fall, % of patients",24 mg/day,(4.4%)
same,"Adverse event Fall, number of patients",24 mg/day,12
same,"Adverse event Headache, % of patients",24 mg/day,(4.8%)
same,"Adverse event Headache, number of patients",24 mg/day,13
same,"Adverse event Injury, % of patients",24 mg/day,(5.9%)
same,"Adverse event Injury, number of patients",24 mg/day,16
same,"Adverse event Nausea, % of patients",24 mg/day,(16.5%)
same,"Adverse event Nausea, number of patients",24 mg/day,45
same,"Adverse event Rhinitis, % of patients",24 mg/day,(4.0%)
same,"Adverse event Rhinitis, number of patients",24 mg/day,11
same,"Adverse event Urinary tract infection, % of patients",24 mg/day,(8.1%)
same,"Adverse event Urinary tract infection, number of patients",24 mg/day,22
same,"Adverse event Vomiting, % of patients",24 mg/day,(9.9%)
same,"Adverse event Vomiting, number of patients",24 mg/day,27
same,"Adverse event Weight decrease, % of patients",24 mg/day,(4.8%)
same,"Adverse event Weight decrease, number of patients",24 mg/day,13
same,"Adverse event of clinical interest Bradycardia, % of patients",24 mg/day,(2.9%)
same,"Adverse event of clinical interest Bradycardia, number of patients",24 mg/day,8
same,"Adverse event of clinical interest Convulsions, % of patients",24 mg/day,(0.4%)
same,"Adverse event of clinical interest Convulsions, number of patients",24 mg/day,1
same,"Adverse event of clinical interest Fatigue, % of patients",24 mg/day,(4.8%)
same,"Adverse event of clinical interest Fatigue, number of patients",24 mg/day,13
same,"Adverse event of clinical interest Muscle weakness, % of patients",24 mg/day,(0.4%)
same,"Adverse event of clinical interest Muscle weakness, number of patients",24 mg/day,1
same,"Adverse event of clinical interest Syncope, % of patients",24 mg/day,(3.3%)
same,"Adverse event of clinical interest Syncope, number of patients",24 mg/day,9
same,"Serious adverse event Abdominal pain, % of patients",24 mg/day,(0.0%)
same,"Serious adverse event Abdominal pain, number of patients",24 mg/day,0
same,"Serious adverse event Agitation, % of patients",24 mg/day,(0.0%)
same,"Serious adverse event Agitation, number of patients",24 mg/day,0
same,"Serious adverse event Asthenia, % of patients",24 mg/day,(0.4%)
same,"Serious adverse event Asthenia, number of patients",24 mg/day,1
same,"Serious adverse event Basal cell carcinoma, % of patients",24 mg/day,(0.7%)
same,"Serious adverse event Basal cell carcinoma, number of patients",24 mg/day,2
same,"Serious adverse event Breast neoplasm female, % of patients",24 mg/day,(0.0%)
same,"Serious adverse event Breast neoplasm female, number of patients",24 mg/day,0
same,"Serious adverse event Cardiac failure, % of patients",24 mg/day,(0.0%)
same,"Serious adverse event Cardiac failure, number of patients",24 mg/day,0
same,"Serious adverse event Dehydration, % of patients",24 mg/day,(0.0%)
same,"Serious adverse event Dehydration, number of patients",24 mg/day,0
same,"Serious adverse event Diarrhea, % of patients",24 mg/day,(0.0%)
same,"Serious adverse event Diarrhea, number of patients",24 mg/day,0
same,"Serious adverse event Dyspnea, % of patients",24 mg/day,(1.1%)
same,"Serious adverse event Dyspnea, number of patients",24 mg/day,3.
same,"Serious adverse event Fall, % of patients",24 mg/day,(1.1%)
same,"Serious adverse event Fall, number of patients",24 mg/day,3
same,"Serious adverse event Gi haemorrhage, % of patients",24 mg/day,(0.7%)
same,"Serious adverse event Gi haemorrhage, number of patients",24 mg/day,2
same,"Serious adverse event Injury, % of patients",24 mg/day,(1.8%)
same,"Serious adverse event Injury, number of patients",24 mg/day,5
same,"Serious adverse event Myocardial infarction, % of patients",24 mg/day,(0.4%)
same,"Serious adverse event Myocardial infarction, number of patients",24 mg/day,1
same,"Serious adverse event Nausea, % of patients",24 mg/day,(0.0%)
same,"Serious adverse event Nausea, number of patients",24 mg/day,0
same,"Serious adverse event Pneumonia, % of patients",24 mg/day,(1.1%)
same,"Serious adverse event Pneumonia, number of patients",24 mg/day,3
same,"Serious adverse event Sepsis, % of patients",24 mg/day,(0.0%)
same,"Serious adverse event Sepsis, number of patients",24 mg/day,0
same,"Serious adverse event Surgical intervention, % of patients",24 mg/day,(0.0%)
same,"Serious adverse event Surgical intervention, number of patients",24 mg/day,0
same,"Serious adverse event Syncope, % of patients",24 mg/day,(1.8%)
same,"Serious adverse event Syncope, number of patients",24 mg/day,5
same,"Serious adverse event Thrombophlebitis deep, % of patients",24 mg/day,(0.7%)
same,"Serious adverse event Thrombophlebitis deep, number of patients",24 mg/day,2
same,"Serious adverse event Transient ischemic attack, % of patients",24 mg/day,(0.0%)
same,"Serious adverse event Transient ischemic attack, number of patients",24 mg/day,0
same,"Serious adverse event Urinary tract infection, % of patients",24 mg/day,(0.0%)
same,"Serious adverse event Urinary tract infection, number of patients",24 mg/day,0
same,"Serious adverse event Vomiting, % of patients",24 mg/day,(0.4%)
same,"Serious adverse event Vomiting, number of patients",24 mg/day,1
same,Syncope incidence,24 mg/day,slight dose-related increase in incidence
same,"Total patients with any SAE, %",24 mg/day,(12.8%)
same,"Total patients with any SAE, number",24 mg/day,35
same,"Occurrence of nausea, vomiting and anorexia","8, 16, 24 mg/day",mild dose-related occurrence at a relatively low incidence
same,Bradycardia incidence compared with placebo,all galantamine doses,higher incidence
same,Incidence of serious adverse events,all treatment groups,comparable across all treatment groups
same,Deaths related to trial medication,throughout the trial,No death was considered by the investigator to be related to trail medication
